The subject of this test is ICAM-1. The test can be described thus: MARINE study (fasting TG ≧500 mg/dL), ICAM-1. The test is classed as in vivo, human. To be noted: MARINE ITT, week 12. The text has this: Parameters (a)-(y) can be measured in accordance with any clinically acceptable methodology. For example, triglycerides, total cholesterol, HDL-C and fasting blood sugar can be sample from serum and analyzed using standard photometry techniques. VLDL-TG, LDL-C and VLDL-C can be calculated or determined using serum lipoprotein fractionation by preparative ultracentrifugation and subsequent quantitative analysis by refractometry or by analytic ultracentrifugal methodology. Apo A1, Apo B and hsCRP can be determined from serum using standard nephelometry techniques. Lipoprotein (a) can be determined from serum using standard turbidimetric immunoassay techniques. LDL particle number and particle size can be determined using nuclear magnetic resonance (NMR) spectrometry. Remnants lipoproteins and LDL-phospholipase A2 can be determined from EDTA plasma or serum and serum, respectively, using enzymatic immunoseparation techniques. Oxidized LDL, intercellular adhesion molecule-1 and interleukin-2 levels can be determined from serum using standard enzyme immunoassay techniques. These techniques are described in detail in standard textbooks, for example Tietz Fundamentals of Clinical Chemistry, 6th Ed. (Burtis, Ashwood and Borter Eds.), WB Saunders Company. […]

On to `CC/C=C\C/C=C\C/C=C\C/C=C\C/C=C\CCCC(=O)OCC` [AMR101, all-cis eicosa-5,8,11,14,17-pentaenoic acid ethyl ester], for which the “ICAM-1 change from baseline (median)” value runs as follows: (2 g/day) −0.4%; (4 g/day) −0.9%.

These data come from patent US9827219B2, “Compositions and methods for lowering levels of high-sensitivity C-reactive protein (HS-CRP) in a subject” (priority 2012, dated 2017).
